Test results published in patent US8952024B2, “Herbicidal pyrimidone derivatives” (E I du Pont de Nemours and Company, priority 2009, dated 2015).

Key:
Type in all cases: in vivo
[1] = tested on: windgrass (Apera spica-venti); assay: Test B postemergence plant response; conditions: Postemergence; for Windgrass plant response rating: 250 g ai/ha, scale 0 to 100
In short: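 Plants grown in peat/vermiculite medium were sprayed postemergence at 2–18 cm height (1- to 4-leaf stage). After 13–15 days in the greenhouse, response was rated visually against untreated controls on a 0–100 scale (0 no effect, 100 complete control).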

[2] = tested on: umbrella sedge (Cyperus difformis); assay: Test B flooded paddy test; conditions: for Plant response rating, Flood, Sedge, Umbrella: 250 g ai/ha, flooded paddy test, visual rating on 0 to 100 scale (0 no effect, 100 complete control) after 13 to 15 days; for Plant response rating, Sedge, Umbrella: Flood (flooded paddy test), 13 to 15 days
In short: (§1)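 Post-flood paddy application: compounds are introduced into water 3 cm deep over the soil, reaching plants at the 2-leaf stage. The water level is maintained, and after 13–15 days under greenhouse conditions, response is judged by eye relative to controls, where 100 means complete control.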

[3] = tested on: ducksalad (Heteranthera limosa); assay: Test B flooded paddy test; conditions: for Plant response rating, Flood, Ducksalad: 250 g ai/ha, flooded paddy test, visual rating on 0 to 100 scale (0 no effect, 100 complete control) after 13 to 15 days; for Plant response rating, Ducksalad: Flood (flooded paddy test), 13 to 15 days
In short: as §1

[4] = tested on: barnyardgrass (Echinochloa crus-galli); assay: Test B flooded paddy test; conditions: for Plant response rating, Flood, Barnyardgrass: 250 g ai/ha, flooded paddy test, visual rating on 0 to 100 scale (0 no effect, 100 complete control) after 13 to 15 days; for Plant response rating, Barnyardgrass: Flood (flooded paddy test), 13 to 15 days
In short: as §1

rice (Oryza sativa) = assay: Test B flooded paddy test; conditions: for Plant response rating, Flood, Rice: 250 g ai/ha, flooded paddy test, visual rating on 0 to 100 scale (0 no effect, 100 complete control) after 13 to 15 days; for Plant response rating, Rice: Flood (flooded paddy test), 13 to 15 days
In short: as §1

[5] = tested on: velvetleaf (Abutilon theophrasti); assay: Test A pre-/postemergence plant response
In short: (§2)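 Each species was treated preemergence via directed soil spray and postemergence at the one- to two-leaf stage, with compounds formulated in a non-phytotoxic solvent plus surfactant. Visual injury relative to untreated controls was rated after about ten days on a 0–100 scale.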

corn (Zea mays) = assay: Test A pre-/postemergence plant response
In short: as §2

[6] = tested on: giant foxtail (Setaria faberii); assay: Test A pre-/postemergence plant response
In short: as §2

[7] = tested on: pigweed (Amaranthus retroflexus); assay: Test A pre-/postemergence plant response
In short: as §2

[8] = tested on: large crabgrass (Digitaria sanguinalis); assay: Test A pre-/postemergence plant response
In short: as §2

[9] = tested on: wheat (Triticum aestivum); assay: Test A pre-/postemergence plant response
In short: as §2

[10] = tested on: barnyardgrass (Echinochloa crus-galli); assay: Test A pre-/postemergence plant response
In short: as §2

[11] = tested on: morningglory (Ipomoea spp.); assay: Test A pre-/postemergence plant response
In short: as §2

[12] = 31 g ai/ha, scale 0 to 100 (0 no effect, 100 complete control)
[13] = 62 g ai/ha, scale 0 (no effect) to 100 (complete control), 13 to 15 days
[14] = 125 g ai/ha, visual rating after 13 to 15 days, scale 0 (no effect) to 100 (complete control)
[15] = 31 g ai/ha, scale of 0 to 100 where 0 is no effect and 100 is complete control
[16] = 62 g ai/ha, scale 0 to 100, 0 is no effect, 100 is complete control
[17] = 125 g ai/ha, scale 0 to 100, 0 is no effect, 100 is complete control
[18] = Postemergence, 125 g ai/ha, visual injury, 0 to 100 scale (0 no effect, 100 complete control), approx. ten days
[19] = Postemergence, 500 g ai/ha, 0 to 100 scale, 0 = no effect, 100 = complete control, approx. ten days
[20] = Preemergence, 125 g ai/ha, 0 to 100 scale, 0 = no effect, 100 = complete control
[21] = Preemergence, 500 g ai/ha, visual injury, 0 to 100 scale (0 no effect, 100 complete control), approx. ten days

O=C1CCCC([O-])=C1C(=O)c1cnc(-c2ccccc2)n(-c2ccccc2)c1=O.[K+] [Compound 14]
40: Plant response rating, Flood, Sedge, Umbrella [2] | Plant response rating, Flood, Ducksalad [3] | Plant response rating, Foxtail, Giant [6, 20]
5: Plant response rating, Windgrass [1, 12]
70: Plant response rating, Barnyardgrass [10, 21]
0: Plant response rating, Sedge, Umbrella [2, 15] | Plant response rating, Sedge, Umbrella [2, 16] | Plant response rating, Sedge, Umbrella [2, 17] | Plant response rating, Ducksalad [3, 15] | Plant response rating, Flood, Barnyardgrass [4] | Plant response rating, Barnyardgrass [4, 15] | Plant response rating, Barnyardgrass [4, 16] | Plant response rating, Barnyardgrass [4, 17] | Plant response rating, Flood, Rice (rice (Oryza sativa)) | Plant response rating, Rice (rice (Oryza sativa); [15]) | Plant response rating, Rice (rice (Oryza sativa); [16]) | Plant response rating, Rice (rice (Oryza sativa); [17]) | Corn plant response rating (corn (Zea mays); [18]) | Plant response rating, Corn (corn (Zea mays); [20]) | Plant response rating, Corn (corn (Zea mays); [21]) | Wheat plant response rating [9, 18] | Plant response rating, Wheat [9, 19] | Plant response rating, Wheat [9, 20] | Plant response rating, Wheat [9, 21]
50: Windgrass plant response rating [1]
60: Plant response rating, Morningglory [11, 21]
90: Plant response rating, Velvetleaf [5, 20] | Plant response rating, Foxtail, Giant [6, 19] | Plant response rating, Foxtail, Giant [6, 21] | Plant response rating, Crabgrass, Large [8, 19] | Plant response rating, Crabgrass, Large [8, 21]
80: Pigweed plant response rating [7, 18] | Plant response rating, Barnyardgrass [10, 19]
30: Plant response rating, Windgrass [1, 13] | Plant response rating, Windgrass [1, 14] | Plant response rating, Ducksalad [3, 17] | Foxtail, Giant plant response rating [6, 18] | Crabgrass, Large plant response rating [8, 18] | Plant response rating, Crabgrass, Large [8, 20] | Barnyardgrass plant response rating [10, 18]
100: Velvetleaf plant response rating [5, 18] | Plant response rating, Velvetleaf [5, 19] | Plant response rating, Velvetleaf [5, 21] | Plant response rating, Pigweed [7, 19] | Plant response rating, Pigweed [7, 20] | Plant response rating, Pigweed [7, 21] | Plant response rating, Morningglory [11, 19]
20: Plant response rating, Ducksalad [3, 16] | Plant response rating, Corn (corn (Zea mays); [19]) | Morningglory plant response rating [11, 18]
10: Plant response rating, Barnyardgrass [10, 20] | Plant response rating, Morningglory [11, 20]

O=C1CCCC(O)=C1C(=O)c1cnc(-c2ccccc2)n(-c2ccc(F)cc2)c1=O [Compound 24]
40: Plant response rating, Foxtail, Giant [6, 20]
60: Plant response rating, Windgrass [1, 14]
70: Foxtail, Giant plant response rating [6, 18] | Crabgrass, Large plant response rating [8, 18] | Plant response rating, Barnyardgrass [10, 19] | Morningglory plant response rating [11, 18]
75: Plant response rating, Flood, Sedge, Umbrella [2] | Plant response rating, Flood, Ducksalad [3]
20: Plant response rating, Windgrass [1, 12] | Plant response rating, Ducksalad [3, 16] | Plant response rating, Flood, Barnyardgrass [4] | Plant response rating, Wheat [9, 21] | Plant response rating, Morningglory [11, 20]
0: Plant response rating, Sedge, Umbrella [2, 16] | Plant response rating, Barnyardgrass [4, 16] | Plant response rating, Flood, Rice (rice (Oryza sativa)) | Plant response rating, Rice (rice (Oryza sativa); [16]) | Corn plant response rating (corn (Zea mays); [18]) | Plant response rating, Corn (corn (Zea mays); [20]) | Plant response rating, Corn (corn (Zea mays); [21]) | Wheat plant response rating [9, 18] | Plant response rating, Wheat [9, 20]
30: Plant response rating, Windgrass [1, 13] | Plant response rating, Corn (corn (Zea mays); [19]) | Plant response rating, Crabgrass, Large [8, 20] | Plant response rating, Wheat [9, 19]
80: Windgrass plant response rating [1] | Plant response rating, Morningglory [11, 21]
100: Velvetleaf plant response rating [5, 18] | Plant response rating, Velvetleaf [5, 19] | Plant response rating, Velvetleaf [5, 21] | Plant response rating, Foxtail, Giant [6, 21] | Plant response rating, Pigweed [7, 19] | Plant response rating, Pigweed [7, 21] | Plant response rating, Crabgrass, Large [8, 21] | Plant response rating, Morningglory [11, 19]
10: Barnyardgrass plant response rating [10, 18] | Plant response rating, Barnyardgrass [10, 20]
90: Plant response rating, Velvetleaf [5, 20] | Plant response rating, Foxtail, Giant [6, 19] | Pigweed plant response rating [7, 18] | Plant response rating, Pigweed [7, 20] | Plant response rating, Crabgrass, Large [8, 19] | Plant response rating, Barnyardgrass [10, 21]

Cc1cccc(-n2c(-c3ccccc3)ncc(C(=O)C3=C(O)CCCC3=O)c2=O)c1C [Compound 27]
10: Plant response rating, Windgrass [1, 12] | Plant response rating, Windgrass [1, 13] | Plant response rating, Barnyardgrass [10, 20]
90: Plant response rating, Foxtail, Giant [6, 19] | Plant response rating, Foxtail, Giant [6, 21] | Plant response rating, Pigweed [7, 21] | Plant response rating, Crabgrass, Large [8, 21] | Plant response rating, Barnyardgrass [10, 19]
80: Foxtail, Giant plant response rating [6, 18] | Plant response rating, Barnyardgrass [10, 21] | Plant response rating, Morningglory [11, 21]
20: Plant response rating, Morningglory [11, 20]
50: Plant response rating, Windgrass [1, 14] | Barnyardgrass plant response rating [10, 18]
75: Plant response rating, Sedge, Umbrella [2, 16] | Plant response rating, Ducksalad [3, 16]
70: Plant response rating, Pigweed [7, 20] | Crabgrass, Large plant response rating [8, 18] | Plant response rating, Morningglory [11, 19]
60: Windgrass plant response rating [1] | Plant response rating, Velvetleaf [5, 20] | Morningglory plant response rating [11, 18]
30: Plant response rating, Corn (corn (Zea mays); [19]) | Plant response rating, Foxtail, Giant [6, 20] | Plant response rating, Crabgrass, Large [8, 20]
100: Velvetleaf plant response rating [5, 18] | Plant response rating, Velvetleaf [5, 19] | Plant response rating, Velvetleaf [5, 21] | Pigweed plant response rating [7, 18] | Plant response rating, Pigweed [7, 19] | Plant response rating, Crabgrass, Large [8, 19]
40: Plant response rating, Flood, Barnyardgrass [4]
85: Plant response rating, Flood, Sedge, Umbrella [2] | Plant response rating, Flood, Ducksalad [3]
0: Plant response rating, Barnyardgrass [4, 16] | Plant response rating, Flood, Rice (rice (Oryza sativa)) | Plant response rating, Rice (rice (Oryza sativa); [16]) | Corn plant response rating (corn (Zea mays); [18]) | Plant response rating, Corn (corn (Zea mays); [20]) | Plant response rating, Corn (corn (Zea mays); [21]) | Wheat plant response rating [9, 18] | Plant response rating, Wheat [9, 19] | Plant response rating, Wheat [9, 20] | Plant response rating, Wheat [9, 21]
